Reference: US12054494B2, “Compound with anticancer activity” (KYOWA KIRIN CO., LTD., priority 2018, dated 2024)

Columns and labels:
[1] = system: DLBCL strain SU-DHL-4 subcutaneously transplanted tumor; test: Antitumor effect on subcutaneous transplant model in SCID mouse; format: in vivo; details: 3 mg/kg intravenously 5 times a week for 2 weeks; male SCID mouse; versus vehicle administration group
Procedure: Antitumor Effect on Subcutaneous Transplant Model in SCID Mouse DLBCL Strain SU-DHL-4
1×10^7 cells of DLBCL strain SU-DHL-4 (Code No. ACC 495, Deutsche Sammlung von Mikroorganismen and Zellkulturen GmbH) suspended in a 1:1 mixed solution of PBS and matrigel (CORNING Code No. 354234) were transplanted subcutaneously to the ventral side of a male SCID mouse. Eighteen days after the transplantation, the body weight and the tumor diameter were measured, the tumor volume was calculated by the following formula, and the mice were divided into two groups (n=5) so that the average tumor volume of each group was equal. E-workbook software (ID Business Solusions) was used for grouping and measurement. […]
The test was conducted in two groups, a vehicle administration group and a compound 1a administration group (compound administration group). […] After the start of the test, body weight and tumor diameter were measured twice a week. The tumor volume on each measurement day was calculated by the above formula. The tumor growth rate (hereinafter referred to as V/V0) was calculated by dividing the tumor volume V on each measurement day by the tumor volume V0 on the test start day (Day 0). The T/C was calculated by dividing the average value (T) of V/V0 of each group by the average value (C) of the vehicle administration group.

[2] = Body weight in SU-DHL-4 subcutaneous transplant model; format: in vivo; details: 3 mg/kg intravenously 5 times a week for 2 weeks, male SCID mouse; for Body weight: mean of n=5
Procedure: 1×10^7 cells of DLBCL strain SU-DHL-4 (Code No. ACC 495, Deutsche Sammlung von Mikroorganismen and Zellkulturen GmbH) suspended in a 1:1 mixed solution of PBS and matrigel (CORNING Code No. 354234) were transplanted subcutaneously to the ventral side of a male SCID mouse. Eighteen days after the transplantation, the body weight and the tumor diameter were measured, the tumor volume was calculated by the following formula, and the mice were divided into two groups (n=5) so that the average tumor volume of each group was equal. E-workbook software (ID Business Solusions) was used for grouping and measurement. [Tumor volume (mm^3)]=[Tumor long diameter (mm)]×[Tumor short diameter (mm)]^2×0.5
The test was conducted in two groups, a vehicle administration group and a compound 1a administration group (compound administration group). To the compound 1a administration group, a solution of compound 1a dissolved in 30% DMSO/3% Tween 80/physiological saline so as to give a final concentration of 0.6 mg/mL was administered intravenously (tail vein) at 5 mL/kg (3 mg/kg) 5 times a week for 2 weeks. To the vehicle administration group, 30% DMSO/3% Tween 80/physiological saline was administered intravenously (tail vein) at 5 mL/kg on the same schedule as the compound 1a administration group. After the start of the test, body weight and tumor diameter were measured twice a week. The tumor volume on each measurement day was calculated by the above formula. The tumor growth rate (hereinafter referred to as V/V0) was calculated by dividing the tumor volume V on each measurement day by the tumor volume V0 on the test start day (Day 0). The T/C was calculated by dividing the average value (T) of V/V0 of each group by the average value (C) of the vehicle administration group.

[3] = system: SU-DHL-4 cells; test: Inhibitory effect on cell viability (Cell Counting Kit-8); format: cell-based; details: Homo sapiens, 72 hours culture with test compound, concentration showing 90% inhibition rate of cell viability
How it was run: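 IC90 corresponds to 90% loss of viability, measured as CCK-8 absorbance at 450 nm (2-3 h colour development). Compounds in 9 dilutions (0.1% DMSO) were applied for 72 h at 37° C to SU-DHL-4 lymphoma cells seeded at 2000/well in RPMI1640/10% FBS after 18-25 h preculture.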

CCC(=O)N1c2ccccc2[C@H](Nc2ccc(C(=O)NCCCNC(=O)c3ccc(N[C@@H]4C[C@H](C)N(C(=O)CC)c5ccccc54)cc3)cc2)C[C@@H]1C (single isomer, unassigned) [Compound 1a, N,N′-(Propane-1,3-diyl)bis(4-{[(2S*,4R*)-2-methyl-1-propionyl-1,2,3,4-tetrahydroquinolin-4-yl]amino}benzamide)]
Antitumor effect on SU-DHL-4 subcutaneously transplanted tumor (in words) [1]: strong antitumor effect | Weight loss (in words) [2]: no weight loss was observed | Body weight ([2]; Day 0): 24.56 g | Body weight ([2]; Day 3): 25.36 g | Body weight ([2]; Day 7): 25.44 g | Body weight ([2]; Day 10): 25.14 g | Body weight ([2]; Day 14): 25.74 g | Body weight ([2]; Day 18): 26.23 g | IC90 [3]: 5.21 nM
